Measurements taken from US20130281462A1, “ARYL DIAMIDINES AND PRODRUGS THEREOF FOR TREATING MYOTONIC DYSTROPHY” (University of Oregon, priority 2012, published 2013).
“Also recorded” adds a separate entry of the source. Like-named read-outs stand apart in the source and are kept apart here.

What was measured:
[1] = test system: TNNT2 minigene exon 5 splicing in HeLa cells expressing 960 CUG repeats; experiment: TNNT2 minigene splicing rescue in HeLa cell DM1 model; assay type: cell-based; details: for rescue of TNNT2 exon 5 mis-splicing: propamidine up to 130 μM; for EC50: read-out: concentration needed to observe 50% rescue (EC50) of TNNT2 mis-splicing, exon 5 inclusion, 16-18 hours
[2] = test system: INSR minigene exon 11 splicing in HeLa cells expressing 960 CUG repeats; experiment: INSR minigene splicing rescue in HeLa cell DM1 model; assay type: cell-based; details: for EC50: HeLa cell DM1 model, exon 11 inclusion, 16-18 hours, read-out: EC50 for rescue of INSR mis-splicing
MBNL1/(CUG)4 complex = target: T1, MBNL1/(CUG)4 complex (Homo sapiens, UniProt Q9NR56); experiment: competitive EMSA (gel shift assay), disruption of the MBNL1/(CUG)4 complex; assay type: binding
T1 construct: The MBNL1 medium construct (1-260) was purified as previously described; made in house
T1 sequence (Q9NR56 1-260): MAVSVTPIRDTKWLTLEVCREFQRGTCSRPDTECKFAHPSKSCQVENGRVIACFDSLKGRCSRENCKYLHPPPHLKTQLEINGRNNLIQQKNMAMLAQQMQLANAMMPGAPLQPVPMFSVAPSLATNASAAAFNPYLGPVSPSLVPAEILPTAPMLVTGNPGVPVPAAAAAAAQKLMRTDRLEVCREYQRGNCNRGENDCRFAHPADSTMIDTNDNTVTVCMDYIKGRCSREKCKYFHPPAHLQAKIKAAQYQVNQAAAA

water solubility = assay type: physicochemical
Atp2a1 exon 22 = Atp2a1 exon 22 splicing in vastus muscle of HSALR DM1 mice; assay type: in vivo
Description: (§1) Homozygous HSALR transgenic mice in line 20b (FVB inbred background) were previously described (Mankodi et al., Science 289″1769-1773, 2000). Gender-matched mice of 10-14 weeks of age were treated with heptamidine at the indicated dose by daily intraperitoneal injection for 7 days. Control mice received 5% glucose injections. Mice were sacrificed 1 d after the final injection and vastus (quadriceps) muscle was obtained for splicing analysis. Mice in the withdrawal (WD) group were treated with 30 mg/kg heptamidine for 7 days and then left untreated for 10 days before sacrifice. […] RNA was isolated, reverse transcribed, and amplified by PCR, and analyzed on agarose gels using a fluorimager as previously described (Warf et al., Proc. Natl. Acad. Sci. USA 106:18551-18556, 2009).
The MBNL regulated exon of Atp2a1 (exon 22) is included in the presence of MBNL proteins (positively regulated). Wild type adult mice included this exon 100±1% of the time (FIG. 4). When MBNL proteins are sequestered by the 220 CUG repeats present in HSALR mice, exon 22 inclusion drops to 23±3%. […] Additionally, after being treated with 30 mg/kg heptamidine for 7 d, mice went untreated for 10 days, and splicing of Clcn1 and Atp2a1 was examined. […] The severity of myotonia was graded by insertion of extracellular recording electrodes into muscle tissue (electromyography) under general anesthesia.

Clcn1 exon 7a = Clcn1 exon 7a splicing in vastus muscle of HSALR DM1 mice; assay type: in vivo
Description: as §1
The HSA^LR DM1 mouse model expresses 220 CUG repeats under the skeletal promoter (Mankodi et al., Science 289″1769-1773, 2000). […] Wild type adult mice include exon 7a of the Clcn1 pre-mRNA at a level of 4±1% while HSA^LR mice include exon 7a at steady state levels of 47±1% (FIG. 3, note that exon 7a inclusion isoforms are subject to nonsense mediated decay).

HSALR mice = experiment: electromyography, myotonia grade in vastus muscle of HSALR mice; assay type: in vivo; details: 20 or 30 mg/kg for 7 days, controls grade 3
Description: as §1
Electromyography was performed under general anesthesia as described previously (Kanadia, Science 302:1978-1980, 2003). Briefly, at least 10 needle insertions were performed in vastus muscle and myotonic discharges were graded on a four point scale: 0, no myotonia; 1, occasional myotonic discharge in less than 50% of needle insertions; 2, myotonic discharge with more than 50% of insertions; and 3, myotonic discharge with nearly all insertions.

[3] = target: T2, MBNL1 (residues 1-260, medium construct) (UniProt Q9NR56 Q9NR56:1-260); experiment: EMSA; 250 nM MBNL1, 0.5 nM RNA, 175 mM NaCl, 5 mM MgCl2, 20 mM Tris pH 7.5, heparin 0.1 mg/mL, RT; complex disrupted by diamidines (pentamidine IC50 39 uM, small-molecule competition); details: label: 5'-32P; hairpin with UUCG cap
T2 sequence: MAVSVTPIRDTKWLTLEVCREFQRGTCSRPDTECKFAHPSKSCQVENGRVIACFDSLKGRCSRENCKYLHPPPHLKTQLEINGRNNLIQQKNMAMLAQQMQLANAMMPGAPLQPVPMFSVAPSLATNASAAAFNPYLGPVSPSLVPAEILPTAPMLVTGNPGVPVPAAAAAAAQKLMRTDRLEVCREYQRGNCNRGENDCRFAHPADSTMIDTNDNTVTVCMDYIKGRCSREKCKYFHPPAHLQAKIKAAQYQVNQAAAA
Description: The 5′ end labeled (CUG)₄ RNA was heated at 95° C. for 3 minutes in 250 mM NaCl, 25 mM MgCl₂, and 75 mM Tris pH 7.5 by heating at 95° C. for 3 minutes. The reaction was cooled on ice for 5 minutes, BSA and heparin were added, and the reaction cooled another 5 minutes. MBNL1 was then added to the RNA and incubated at room temperature (RT) for 10 minutes. Amidine derivative was added, followed by another 5 minute RT incubation, followed by the addition of bromophenol blue. The final reaction volume of 10 μL was incubated at RT for 25 minutes. Final reaction conditions were 0.5 nM (CUG)₄, 175 mM NaCl, 20 mM Tris pH 7.5, 5 mM MgCl₂, 2 mg/mL BSA, 0.1 mg/mL heparin, 1.25 mM β-mercaptoethanol, 1.25% (v/v) glycerol, 250 μM bromophenol blue, and 250 nM MBNL. Bromophenol blue was added at 250 μM since the activity of pentamidine is dependent upon bromophenol blue in vitro. […] IC₅₀ values were calculated as previously described (Warf et al., Proc. Natl. Acad. Sci. USA 106:18551-18556, 2009). In brief, gels were quantified using ImageQuant™ software (Molecular Dynamics/GE Healthcare, Piscataway, N.J.). The percent of RNA bound was determined by taking the ratio of the RNA:protein complex (including any well shifting) to the total RNA, per lane. IC₅₀ values were determined with KaleidaGraph (Synergy, Reading, Pa.) software using the equation: […]

[4] = competitive EMSA, 250 nM MBNL, 0.5 nM (CUG)4, 250 μM bromophenol blue, ± standard deviation of triplicate, read-out: IC50 of diamidine analogs
[5] = 30 mg/kg for 7 days, then 10 days untreated
[6] = HSALR mice, daily intraperitoneal for 7 days
[7] = competitive EMSA as in Example 1, Table 2, read-out: IC50 of diamidine derivatives

For `N=C(N)c1ccc(OCCCCOc2ccc(C(=N)N)cc2)cc1` [Butamidine], the “rescue of TNNT2 exon 5 mis-splicing” value [1] was “lowered exon 5 inclusion levels below that of wild type”, the EC50 [1] was 23 ± 5 µM and the EC50 [2] was 34 ± 7 µM. For the same molecule, the IC50 (MBNL1/(CUG)4 complex; [4]) was 85 ± 17 µM.

For `N=C(N)c1ccc(OCCCCCCCOc2ccc(C(=N)N)cc2)cc1` [Heptamidine], the water solubility (water solubility) was “retaining water solubility”, the “Atp2a1 splicing after withdrawal” value (Atp2a1 exon 22; [5]) was “exon inclusion levels returned to control HSALA levels; also recorded: complete return to disease state splicing levels” and the “rescue of Atp2a1 exon 22 missplicing” value (Atp2a1 exon 22; HSALR mice, 30 mg/kg) was “about 50%”. For the same molecule, the “Atp2a1 exon 22 inclusion” value (Atp2a1 exon 22; HSALR mice, 30 mg/kg/day for 7 days, wild type 100±1%, HSALR 23±3%) was 62±4%, the “rescue of Atp2a1 exon 22 mis-splicing” value (Atp2a1 exon 22; [6]) was “full rescue with heptamidine could not be reached; also recorded: Partial rescue of missplicing” and the “Clcn1 splicing after withdrawal” value (Clcn1 exon 7a; [5]) was “exon inclusion levels returned to control HSALA levels; also recorded: complete return to disease state splicing levels”. The “Clcn1 exon 7a inclusion” value (Clcn1 exon 7a; HSALR mice, 20 mg/kg daily intraperitoneal for 7 days, wild type 4±1%, HSALR 47±1%) was 6±1%, the “rescue of Clcn1 exon 7a mis-splicing” value (Clcn1 exon 7a; [6]) was “dose-dependent reduction of exon 7a inclusion; also recorded: Complete rescue” and the EC50 ([1]; Homo sapiens) was 15 ± 6 µM. The EC50 ([2]; Homo sapiens) was 9 ± 1 µM, the “myotonia grade (electromyography)” value (HSALR mice) was “grade 1 (occasional myotonic discharge) or grade 0; also recorded: occasional myotonic discharges with less than 50% of insertions (grade 1) or no myotonia (grade 0)” and the IC50 (MBNL1/(CUG)4 complex; [4]) was 20 ± 2 µM.

With `N=C(N)c1ccc(OCCCCCCOc2ccc(C(=N)N)cc2)cc1` [Hexamidine] the “cell toxicity” value (HeLa cells) was “low toxicity”, the EC50 ([1]; Homo sapiens) was 12 ± 3 µM and the EC50 ([2]; Homo sapiens) was 15 ± 1 µM. The IC50 (MBNL1/(CUG)4 complex; [4]) was 26 ± 2 µM.

With `N=C(N)c1ccc(OCCCCCCCCCOc2ccc(C(=N)N)cc2)cc1` [Nonamidine] the “concentration that is toxic / causes significant cell death” value (HeLa cells; HeLa cells, TNNT2 splicing assay) was 4 µM, the “rescue of TNNT2 exon 5 mis-splicing” value [1] was “unable to rescue splicing defects before causing significant cell death” and the EC50 [2] was 6 ± 1 µM. For the same molecule, the IC50 (MBNL1/(CUG)4 complex; [4]) was 14 ± 1 µM.

With `N=C(N)c1ccc(OCCCCCCCCOc2ccc(C(=N)N)cc2)cc1` [Octamidine] the “cell toxicity” value (HeLa cells) was “toxicity issues”, the “rescue of TNNT2 exon 5 mis-splicing” value [1] was “slight rescue of TNNT2 mis-splicing” and the EC50 [2] was 7 ± 1 µM. The IC50 (MBNL1/(CUG)4 complex; [4]) was 20 ± 1 µM.

In the case of `N=C(N)c1ccc(OCCCCCOc2ccc(C(=N)N)cc2)cc1` [Pentamidine, reference compound], the EC50 ([1]; Homo sapiens) is reported as 20 ± 4 µM, the “rescue of TNNT2 exon 5 mis-splicing” value [1] is reported as “lowered exon 5 inclusion levels below that of wild type” and the EC50 ([2]; Homo sapiens) is reported as 31 ± 2 µM. For the same molecule, the IC50 (MBNL1/(CUG)4 complex; [4]) was 39 ± 2 µM.

With `N=C(N)c1ccc(OCCCOc2ccc(C(=N)N)cc2)cc1` [Propamidine] the “concentration that is toxic / causes significant cell death” value (HeLa cells; human) was greater than 130 µM, the “rescue of TNNT2 exon 5 mis-splicing” value [1] was “did not have the desired effect on TNNT2 mis-splicing” and the EC50 ([2]; Homo sapiens) was 64 ± 10 µM. The IC50 (MBNL1/(CUG)4 complex; [4]) was 250 ± 10 µM.

With `CC(=O)ON=C(N)c1ccc(OCCCCCCCOc2ccc(C(N)=NOC(C)=O)cc2)cc1` [acetoxy-amdine derivative of heptamidine] the “cell toxicity of prodrugs relative to parent amidine” value (HeLa cells) was “less toxic than heptamidine”.

In the case of `CC(=O)ONC(=N)c1ccc(OCCCCCOc2ccc(C(=N)NOC(C)=O)cc2)cc1` [compound 128, 1,5-bis(4-acetoxyamidinophenoxy)pentane (diacetyldiamidoximeester)], the “cell toxicity of prodrugs relative to parent amidine” value (HeLa cells) is reported as “less toxic than pentamidine” and the “activity of pentamidine prodrugs in the INSR splicing assay” value ([2]; HeLa cell splicing assay, FIG. 6) is reported as “showed activity in the splicing assay”.

`N=C(N)c1ccc(OCCCOc2ccccc2)cc1` [drawing 8 n=3] gave an IC50 (MBNL1/(CUG)4 complex; [7]) of 281 µM.

With `N=C(N)c1ccc(OCCCCOc2ccccc2)cc1` [drawing 8 n=4] the IC50 (MBNL1/(CUG)4 complex; [7]) was 209 µM.

With `N=C(N)c1ccc(OCCCCCOc2ccccc2)cc1` [drawing 8 n=5] the IC50 (MBNL1/(CUG)4 complex; [7]) was 199 µM.

`N=C(N)c1ccc(OCCCCCCOc2ccccc2)cc1` [drawing 8 n=6] gave an IC50 (MBNL1/(CUG)4 complex; [7]) of 236 µM.

`N=C(N)c1ccc(OCCCCCCCOc2ccccc2)cc1` [drawing 8 n=7] gave an IC50 (MBNL1/(CUG)4 complex; [7]) of 253 µM.

Work on `N=C(N)c1ccc(OCCc2ccccc2)cc1` [drawing 9 n=2] yielded an IC50 (MBNL1/(CUG)4 complex; [7]) of 414 µM.

For `N=C(N)c1ccc(OCCCc2ccccc2)cc1` [drawing 9 n=3], the IC50 (MBNL1/(CUG)4 complex; [7]) was 169 µM.

Work on `N=C(N)c1ccc(OCCCCc2ccccc2)cc1` [drawing 9 n=4] yielded an IC50 (MBNL1/(CUG)4 complex; [7]) of 212 µM.

GCUGCUGUUCGCUGCUG (ssRNA) [(CUG)4 hairpin RNA]: binds [3].
